We go through one compound from ChEMBL document CHEMBL5584237, “Design, synthesis, biological evaluation, and in silico studies of novel pyridopyridine derivatives as anticancer candidates targeting FMS kinase” (Eur J Med Chem, 2024).

Series [1] is described as follows: Selectivity index, ratio of IC50 for human WI-38 cells to IC50 for human 786-0 cells.
The next series relates to MDA-MB-435. Briefly: Antiproliferative activity against human MDA-MB-435 cells assessed as cell growth inhibition. Type of series: functional.
The nature of series [2]: Selectivity index, ratio of IC50 for human HS27 cells to IC50 for human PC-3 cells.
Series [3] is described as follows: Selectivity index, ratio of IC50 for human HS27 cells to IC50 for human SNB-75 cells.
Series [4] is described as follows: Selectivity index, ratio of IC50 for human HS27 cells to IC50 for human COLO 205 cells.
Series [5] is described as follows: Selectivity index, ratio of IC50 for human WI-38 cells to IC50 for human MDA-MB-231 cells. The series is classed as toxicity. To be noted: WI-38 cells and MDA-MB-231 cells, read-out: Ratio IC50.
The subject of another series is MOLT-4. The experiment in a line: Antiproliferative activity against human MOLT-4 cells assessed as cell growth inhibition. The series is classed as functional.
Series [6] is described as follows: Selectivity index, ratio of IC50 for human HS27 cells to IC50 for human HCT-116 cells.

In general, GI50 refers to the concentration giving 50% growth inhibition. The TGI is the concentration giving total growth inhibition.

For `CCN1CCN(c2ccc(NC(=O)Nc3ccc(-c4cc(C(=O)NC(C)C)c5ncccc5n4)cc3)cc2C(F)(F)F)CC1`, the “Ratio IC50” value in series [1] is given as 10.52; in series [2], 11.2; in series [3], 4.52; in series [4], 9.77; in series [6], 9.77. Further, the GI50 in the series on MDA-MB-435 came to 650 nM. The figures for the TGI in the series on MDA-MB-435 and with MOLT-4 were 1310 nM and 30600 nM, respectively. Further, the selectivity ratio in series [5] was determined as 10.1.
